According to patent publication US20200113852A1, “METHODS OF PATIENT SELECTION AND TREATING TRXR- OR PRDX-OVEREXPRESSED CANCERS” (TRIACT THERAPEUTICS, INC., priority 2017, published 2020):

How the values were obtained:
[1] = system: TrxR in MDA-MB-231 cells; assay: Endogenous TrxR activity (DTNB reduction assay); assay type: cell-based, human; settings: GSH-depleted MDA-MB-231; iniparib 100 μM, Auranofin 1 μM, up to 4 h
Excerpt: Initial velocities were derived from linear regression analyses and then plotted in double reciprocal plots to obtain the half time of TrxR inhibition using an one phase exponential decay analysis (Prism, GraphPad software).

[2] = system: MDA-MB-231 cells; assay: ROS production (CellROXOrange); assay type: cell-based, human; settings: GSH-depleted MDA-MB-231, 100 μM, 4 h
[3] = system: newly diagnosed glioblastoma multiforme (GBM); assay: Phase II clinical trial GBM, overall survival; assay type: in vivo, human
Excerpt: For assessing the efficacy of the treatment in terms of overall survival, the overall failure rate were estimated and compared to the failure rate of 0.6 per-person year of follow-up regarding the Phase III trial done by Stupp et al. in the same patient population treated with RT plus concomitant and adjuvant temozolomide.
The primary endpoint was death due to all causes. The survival time is defined from time of histological diagnosis to death occurrence. The overall failure rate was expressed as hazard of failure per person-year of follow-up. The total patient population for this part of the study was defined as all patients who have met the eligibility criteria, not met ineligibility criteria, and signed patient informed consent.
It yield above 90% power to detect a 30% reduction in hazard rate with observed hazard ratio of 0.7 (0.42 vs. 0.6) at an alpha level of 0.1 to be significant. The overall failure rate was estimated by dividing the number of events (deaths) by the total exposure time in the study cohort along with 95% confidence intervals. Survival probability and median time of survival was calculated using Kaplan-Meier method.

[4] = system: metastatic triple negative breast cancer; assay: Phase 2 and Phase 3 mTNBC trials, 15-gene expression signature analysis (PFS, OS, ORR); assay type: in vivo, human
Excerpt: Formalin-fixed, paraffin-embedded (FFPE) archival samples from biopsy or surgery at original diagnosis of breast cancer were profiled on the exon-based Affymetrix Hugene1.0ST microarrays using an RNA extraction protocol adapted to the short fragment lengths resulting from RNA degradation in FFPE samples. It was considered that a corpus of n=210 patients for whom clinical outcome data was available in the form of PFS time and associated censoring statuses.
The raw gene expression data from profiling of an initial n=240 FFPE preserved samples, in the form of individual Affymetrix CEL files, was processed using […] estimation. Quality control based on average array brightness excluded 30 outlier scans, and the n=210 remaining profiles were then normalized to each other using quantile normalization. Affymetrix probesets were mapped to genes, in a manner where multiple probesets mapping into the same gene were resolved by assigning the highest intensity to the corresponding gene, this procedure reducing the set of 33,297 probe sets to 20,756 mapped genes. The data was then log 2-transformed, and standardized by mean-subtraction and division by the standard deviation across all 210 samples, for each gene separately. Finally, the data matrix was subsetted to the intersection of the oxidative response set of 102 genes with the set of genes represented on the Hugene1.0ST arrays, resulting in profiles for p=82 genes across all n=210 samples.
A multivariate Cox model using supervised principal components was used to model progression free survival times regressed on gene expression data. […]
In Eq.(1) the variables: x1, l=1, . . . , K, denote projections onto the first K principal components of the data matrix of gene expression vectors, after preliminary reduction to a subset of mtop genes out of the original set of 82, where mtop is a variable parameter, 1≤mtop≤82. For a given mtop, the subset is determined by univariate feature selection (generating a Cox model for each gene independently and selecting the mtop genes with the smallest interaction-term P-values). […]

[5] = Phase II clinical trial GBM, toxicity and tolerability

With `NC(=O)c1ccc(I)c([N+](=O)[O-])c1` [Iniparib, 4-iodo-3-nitrobenzamide] the TrxR reductase activity [1] was “inhibition of the TrxR reductase activity”, the ROS [2] was “accumulation of ROS” and the “2 Year Survival” value ([3]; Phase 2, N = 76) was 42.1 % patients. The “3 Year Survival” value ([3]; Phase 2, N = 76) was 23.7 % patients, the “reduced HR versus Stupp et al 2005” value ([3]; single arm phase 2) was ≥ 25% and the median progression-free survival ([4]; biomarker-selected (sensitive) population n=53) was 5.9 months. The “objective response rate (responders)” value ([4]; resistant group) was 34%, the “objective response rate (responders)” value ([4]; sensitive group n=53) was 48% and the Acute kidney injury ([5]; Grade 3) was 1 (1) N (%). For the same compound, the Anemia ([5]; Grade 3) was 2 (2) N (%), the Atrial fibrillation ([5]; Grade 3) was 1 (1) N (%) and the Bronchial infection ([5]; Grade 3) was 1 (1) N (%). For the same compound, the Cognitive disturbance ([5]; Grade 3) was 1 (1) N (%), the Confusion ([5]; Grade 3) was 1 (1) N (%) and the Dehydration ([5]; Grade 3) was 1 (1) N (%). For the same compound, the Dizziness ([5]; Grade 3) was 1 (1) N (%), the Dysphasia ([5]; Grade 3) was 1 (1) N (%) and the Fatigue ([5]; Grade 3) was 4 (5) N (%). For the same compound, the Generalized muscle weakness ([5]; Grade 3) was 2 (2) N (%), the Headache ([5]; Grade 3) was 1 (1) N (%) and the Hyperkalemia ([5]; Grade 3) was 1 (1) N (%). For the same compound, the Hypokalemia ([5]; Grade 3) was 1 (1) N (%), the Hypotension ([5]; Grade 3) was 1 (1) N (%) and the Hypoxia ([5]; Grade 3) was 1 (1) N (%). The Lymphocyte count decreased ([5]; Grade 3) was 4 (5) N (%), the Nausea ([5]; Grade 3) was 2 (2) N (%) and the “Neutrophil Count Decreased” value ([5]; Grade 3) was 3 (4) N (%). For the same compound, the “Platelet Count Decreased” value ([5]; Grade 3) was 4 (5) N (%), the Rash maculo-papular ([5]; Grade 3) was 3 (4) N (%) and the “Skin and subcutaneous tissue disorders” value ([5]; Grade 3) was 1 (1) N (%). The Vomiting ([5]; Grade 3) was 1 (1) N (%), the “White Blood Cell Decreased” value ([5]; Grade 3) was 5 (6) N (%) and the Alanine aminotransferase increased ([5]; Grade 4) was 1 (1) N (%). For the same compound, the Aspartate aminotransferase increased ([5]; Grade 4) was 1 (1) N (%), the Flushing ([5]; Grade 4) was 1 (1) N (%) and the Hypertension ([5]; Grade 4) was 1 (1) N (%). The “Neutrophil Count Decreased” value ([5]; Grade 4) was 5 (6) N (%), the “Platelet Count Decreased” value ([5]; Grade 4) was 11 (13) N (%) and the “White Blood Cell Decreased” value ([5]; Grade 4) was 3 (4) N (%). For the same compound, the Acute kidney injury ([5]; Total) was 1 (1) N (%), the Alanine aminotransferase increased ([5]; Total) was 1 (1) N (%) and the Anemia ([5]; Total) was 2 (2) N (%). The Aspartate aminotransferase increased ([5]; Total) was 1 (1) N (%), the Atrial fibrillation ([5]; Total) was 1 (1) N (%) and the Bronchial infection ([5]; Total) was 1 (1) N (%). The Cognitive disturbance ([5]; Total) was 1 (1) N (%), the Confusion ([5]; Total) was 1 (1) N (%) and the Dehydration ([5]; Total) was 1 (1) N (%). The Dizziness ([5]; Total) was 1 (1) N (%), the Dysphasia ([5]; Total) was 1 (1) N (%) and the Fatigue ([5]; Total) was 4 (5) N (%). For the same compound, the Flushing ([5]; Total) was 1 (1) N (%), the Generalized muscle weakness ([5]; Total) was 2 (2) N (%) and the Headache ([5]; Total) was 1 (1) N (%). For the same compound, the Hyperkalemia ([5]; Total) was 1 (1) N (%), the Hypertension ([5]; Total) was 1 (1) N (%) and the Hypokalemia ([5]; Total) was 1 (1) N (%). For the same compound, the Hypotension ([5]; Total) was 1 (1) N (%), the Hypoxia ([5]; Total) was 1 (1) N (%) and the Lymphocyte count decreased ([5]; Total) was 4 (5) N (%). For the same compound, the Nausea ([5]; Total) was 2 (2) N (%), the “Neutrophil Count Decreased” value ([5]; Total) was 8 (10) N (%) and the “Platelet Count Decreased” value ([5]; Total) was 15 (18) N (%). The Rash maculo-papular ([5]; Total) was 3 (4) N (%), the “Skin and subcutaneous tissue disorders” value ([5]; Total) was 1 (1) N (%) and the Vomiting ([5]; Total) was 1 (1) N (%). The “White Blood Cell Decreased” value ([5]; Total) was 8 (10) N (%), the well tolerated dose ([5]; with adjuvant TMZ) was 17.2 mg/kg weekly and the well tolerated dose ([5]; with radiation and TMZ) was 16 mg/kg weekly.
